Laboratory results: US11260083B2, “Compositions and methods for treating and preventing graft versus host disease” (The Regents of the University of Michigan, priority 2016, dated 2022)

Experiments:
[1] = mouse, in vivo
Description: Animals were intragastrically gavaged with a bolus (2 g/kg) of either labeled ^13C2-Butyrate or non-labeled ^12C-Butyrate. The small and large intestines were then harvested 6 hours later and prepared for analysis as above. […] The ratio of the labeled to unlabeled peak areas were adjusted to incorporate natural distribution of ^13C label and expressed as percentage of ^13C incorporation into the butyrate pool in the luminal contents (Lumen) and intestinal tissue.
It was next determined whether there was a difference in the uptake and metabolism of the exogenously administered butyrate between the syngeneic and allogeneic recipients. To this end, metabolic flux analysis (MFA) assessing label incorporation of heavy 13C labeled butyrate into luminal and intestinal tissue butyrate pools was performed by utilizing GC/MS as above. Recipients of syngeneic and allogeneic transplant were treated 7 days after BMT with a bolus of either^13C-butyrate or regular ^12C-butyrate, which served as the control. The IECs and luminal contents were harvested 6 hours later and analyzed for incorporation of ^13C.

[2] = test system: SLC5A8; assay: Primary IECs cultured with proinflammatory mediators; type: cell-based, mouse; conditions: primary IECs exposed to IFN-γ and/or TNF
Description: It was next explored whether the diminished concentration of butyrate observed in the intestinal tissue was from impaired uptake of butyrate following allo-BMT. To this end, the expression of the known butyrate monocarboxylate transporter (SLC5A8) and the receptor of butyrate (GPR43) was analyzed in IECs following allo-BMT (Ganapathy, V., Thangaraju, M., Prasad, P. D., Martin, P. M. & Singh, N. Transporters and receptors for short-chain fatty acids as the molecular link between colonic bacteria and the host. Curr Opin Pharmacol 13, 869-874 (2013); Furusawa, Y. et al. Commensal microbe-derived butyrate induces the differentiation of colonic regulatory T cells. Nature (2013)). […] Primary IECs were cultured with proinflammatory mediators (IFN-γ and/or TNF) and expression of the butyrate transporter SLC5A8 was analyzed.

[3] = IECs from large intestine, allogeneic vs syngeneic recipients

CC[13CH2][13C](=O)[O-].[Na+] [^13C-butyrate, Sodium butyrate-1,2-^13C2]
heavy carbon in malate [3]: significant difference | incorporation into succinate [3]: trend towards greater incorporation | 13C incorporation in malate (IECs from small and large intestines combined, allo-BMT vs syngeneic): overall increased level | 13C heavy butyrate in the intestinal tissue [1]: significantly decreased

B1: IFN-γ: proinflammatory mediator (protein, UniProt P01579 24-161, looked up)
Interferon gamma: QDPYVKEAENLKKYFNAGHSDVADNGTLFLGILKNWKEESDRKIMQSQIVSFYFKLFKNFKDDQSIQKSVETIKEDMNVKFFNSNKKKRDDFEKLTNYSVTDLNVQRKAIHELIQVMAELSPAAKTGKRKRSQMLFRG
expression of Slc5a8 [2]: significantly decreased
